Patent US6552012B2 (priority 2000, dated 2003)
Where a name gives a salt, the structure may show the parent alone. Read-outs that look alike come from different tables or passages of the source.

Experiments:
[1] = target: T1, nAChR formed by the α7 subunit isoform (Rattus norvegicus, UniProt Q05941); test: biochemical; format: binding; details: read-out: Assay III IC50
T1 construct: Cerebral cortices from male Wistar rats (150-250 g) are homogenised; from tissue; host or cells: rat cerebral cortex membranes (male Wistar)

[2] = target: T2, nAChRs comprised of α4 and β2 subunits (Rattus norvegicus, UniProt P09483+P12390); test: In vitro inhibition of 3H-cytisine binding (Assay I)
T2 construct: Cerebral corticies from male Wistar rats (150-250 g) are homogenised; from tissue; host or cells: rat cerebral cortex membranes (male Wistar)
Experimental: In Vitro inhibition of ^3H-cytisine binding (Assay I)
The predominant subtype with high affinity for nicotine is comprised of α4 and β2 subunits. nAChRs of the latter type can selectively be labelled by the nicotine agonist ^3H-cytisine.
Preparations are performed at 0-4° C. unless otherwise indicated. Cerebral corticies from male Wistar rats (150-250 g) are homogenised for 20 seconds in 15 ml Tris, HCl (50 mM, pH 7.4) containing 120 mM NaCl, 5 mM KCl, 1 mM MgCl2 and 2.5 mM CaCl2 using an Ultra-Turrax homogeniser. The homogenate is centrifuged at 27,000×g for 10 minutes. The supernatant is discarded and the pellet is resuspended in fresh buffer and centrifuged a second time. The final pellet is resuspended in fresh buffer (35 ml per g of original tissue) and used for binding assays.
Aliquots of 500 μl homogenate are added to 25 μl of test solution and 25 μl of ^3H-cytisine (1 nM, final concentration), mixed and incubated for 90 minutes at 2° C. Non-specific binding is determined using (−)-nicotine (100 μM, final concentration). After incubation the samples are added 5 ml of ice-cold buffer and poured directly onto Whatman GF/C glass fibre filters under suction and immediately washed with 2×5 ml ice-cold buffer. The amount of radioactivity on the filters is determined by conventional liquid scintillation counting. Specific binding is total binding minus non-specific binding.

[3] = 3H-cytisine 1 nM, rat cerebral cortex homogenate, read-out: Assay I IC50

T1 sequence (Q05941 23-502): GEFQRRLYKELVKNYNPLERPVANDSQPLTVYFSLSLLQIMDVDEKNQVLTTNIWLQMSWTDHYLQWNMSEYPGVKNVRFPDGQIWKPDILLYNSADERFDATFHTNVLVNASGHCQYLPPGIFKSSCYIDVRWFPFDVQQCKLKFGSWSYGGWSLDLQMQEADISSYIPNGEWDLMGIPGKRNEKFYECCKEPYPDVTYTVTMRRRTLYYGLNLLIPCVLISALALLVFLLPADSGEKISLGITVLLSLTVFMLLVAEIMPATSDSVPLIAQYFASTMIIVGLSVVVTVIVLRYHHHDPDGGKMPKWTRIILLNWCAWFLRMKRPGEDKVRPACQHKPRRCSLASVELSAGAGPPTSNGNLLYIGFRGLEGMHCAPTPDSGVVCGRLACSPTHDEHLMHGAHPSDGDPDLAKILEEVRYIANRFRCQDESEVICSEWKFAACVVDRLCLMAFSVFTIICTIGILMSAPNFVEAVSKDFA
T2 sequence (P09483 31-630): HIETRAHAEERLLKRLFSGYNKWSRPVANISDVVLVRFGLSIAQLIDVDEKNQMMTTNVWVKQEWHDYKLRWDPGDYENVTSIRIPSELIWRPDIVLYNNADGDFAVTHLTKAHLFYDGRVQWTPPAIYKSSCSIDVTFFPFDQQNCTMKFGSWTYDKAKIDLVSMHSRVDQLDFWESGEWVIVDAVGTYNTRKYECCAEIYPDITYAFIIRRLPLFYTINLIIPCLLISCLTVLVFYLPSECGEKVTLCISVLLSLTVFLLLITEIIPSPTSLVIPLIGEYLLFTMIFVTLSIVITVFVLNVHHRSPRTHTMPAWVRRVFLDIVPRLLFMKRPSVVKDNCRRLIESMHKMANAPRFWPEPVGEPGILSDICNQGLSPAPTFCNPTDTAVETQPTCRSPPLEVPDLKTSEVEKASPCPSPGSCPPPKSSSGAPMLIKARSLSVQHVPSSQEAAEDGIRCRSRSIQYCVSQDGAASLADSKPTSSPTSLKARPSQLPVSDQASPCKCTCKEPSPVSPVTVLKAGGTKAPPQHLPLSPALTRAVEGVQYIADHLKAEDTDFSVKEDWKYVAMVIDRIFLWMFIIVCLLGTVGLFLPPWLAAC
T2 sequence (P12390 25-500): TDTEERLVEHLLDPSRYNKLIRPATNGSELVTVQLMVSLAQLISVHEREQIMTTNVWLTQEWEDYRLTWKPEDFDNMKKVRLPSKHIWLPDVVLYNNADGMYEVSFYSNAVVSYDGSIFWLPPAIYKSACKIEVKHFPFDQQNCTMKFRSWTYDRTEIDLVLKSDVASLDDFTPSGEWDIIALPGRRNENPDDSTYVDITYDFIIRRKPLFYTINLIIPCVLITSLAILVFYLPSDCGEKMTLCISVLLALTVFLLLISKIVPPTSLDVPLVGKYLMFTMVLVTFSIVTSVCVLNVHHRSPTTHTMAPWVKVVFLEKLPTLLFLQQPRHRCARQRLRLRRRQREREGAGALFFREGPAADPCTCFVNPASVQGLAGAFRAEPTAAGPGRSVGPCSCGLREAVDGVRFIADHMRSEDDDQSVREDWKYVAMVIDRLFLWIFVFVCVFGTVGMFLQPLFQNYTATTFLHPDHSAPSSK

| Compound | IC50 [1] [nM] | IC50 [2, 3] [nM] | IC50 [2] [nM] | melting point [°C] |
| --- | --- | --- | --- | --- |
| C=COc1cncc(N2CCC3CCC(C2)N3C)c1 (stereo not drawn) [3-(5Ethenyloxy-3-pyridyl)-9-methyl-3,9-diazabicyclo-[4.2.1]-nonane Fumaric Acid Salt] | 5800 | 3 | – | – |
| Clc1ccc(N2CCC3CCC(C2)N3)nn1 (stereo not drawn) [3-[6-Chloro-(3-pyridazinyl)]-3,9-diazabicyclo-[4.2.1]-nonane Fumaric Acid Salt] | 1400 | – | 20 | – |
| COc1cncc(N2C3CCNCC2CC3)c1 (stereo not drawn) (as salt: fumaric acid salt) [9-[5-Methoxy)-(3-pyridyl)]-3,9-diazabicyclo-[4.2.1]-nonane Fumaric Acid Salt] | – | – | – | 183 to 185 |
| CC=COc1cncc(N2CCC3CCC(C2)N3)c1 (stereo not drawn) [3-[5-(Propyl-1-en-oxy)-3-pyridyl]-3,9-diazabicyclo-[4.2.1]-nonane bis Fumaric Acid Salt] | 1800 | – | 2 | – |
| C=COc1cncc(N2CCC3CCC(C2)N3)c1.O=C(O)/C=C/C(=O)O (stereo not drawn) [3-(5-Ethenyloxy-3-pyridyl)-3,9-diazabicyclo-[4.2.1]-nonane Fumaric Acid Salt] | 1500 | 2 | – | 145 to 147 |
| CN1C2CCC1CN(c1ccc(Cl)nn1)CC2 (stereo not drawn) [3-[6-Chloro-(3-pyridazinyl)]-9-methyl-3,9-diazabicyclo-[4.2.1]-nonane Fumaric Acid Salt] | 10000 | – | 1200 | – |
| CN1C2CCC1CN(c1cncc(Cl)c1)CC2.O=C(O)/C=C/C(=O)O (stereo not drawn) | – | – | – | 181 to 182 |
| CC=COc1cncc(N2C3CCNCC2CC3)c1 (stereo not drawn) [9-[5-(Propyl-1-en-oxy)-(3-pyridyl)]-3,9-diazabicyclo-[4.2.1]-nonane Fumaric Acid Salt] | 2700 | 3 | – | – |
| CC=COc1cncc(N2CCC3CCC(C2)N3C)c1 (stereo not drawn) [3-[5-(Propyl-1-en-oxy)-3-pyridyl]-9-methyl-3,9-diazabicyclo-[4.2.1]-nonane Fumaric Acid Salt] | 10000 | – | 5 | – |
| CCOc1cncc(N2C3CCNCC2CC3)c1 (stereo not drawn) [9-[5-Ethoxy-(3-pyridyl)]-3,9-diazabicyclo-[4.2.1]-nonane Fumaric Acid Salt] | 2700 | 3 | – | – |
| CC=COc1cncc(N2C3CCNCC2CC3)c1 (stereo not drawn) (as salt: fumaric acid salt) [9-[5-(Propyl-1-en-oxy)-(3-pyridyl)]-3,9-diazabicyclo-[4.2.1]-nonane Fumaric Acid Salt] | – | – | – | 161.5 to 163 |
| CC=COc1cncc(N2CCC3CCC(C2)N3)c1 (stereo not drawn) (as salt: fumaric acid salt) [3-[5-(Propyl-1-en-oxy)-3-pyridyl]-3,9-diazabicyclo-[4.2.1]-nonane bis Fumaric Acid Salt] | – | – | – | 144 to 146 |
| CCOc1cc(N2CCC3CCC(C2)N3C)cnc1Cl.O=C(O)/C=C/C(=O)O (stereo not drawn) | – | – | – | 208.6 |
| CN1C2CCCC1CN(c1cncc(Br)c1)CC2.O=C(O)/C=C/C(=O)O (stereo not drawn) | – | – | – | 162.5 to 164.5 |
| CCOc1cncc(N2CCC3CCC(C2)N3C)c1 (stereo not drawn) [3-[5-Ethoxy-(3-pyridyl)]-9-methyl-3,9-diazabicyclo-[4.2.1]-nonane bis-fumaric Acid Salt] | 8100 | 5 | – | – |
| COc1cncc(N2C3CCNCC2CC3)c1 (stereo not drawn) [9-[5-Methoxy)-(3-pyridyl)]-3,9-diazabicyclo-[4.2.1]-nonane Fumaric Acid Salt] | 3000 | – | 150 | – |
| CCOc1cncc(N2CCC3CCC(C2)N3)c1.O=C(O)/C=C/C(=O)O (stereo not drawn) [3-(5-Ethoxy-3-pyridyl)-3,9-diazabicyclo-[4.2.1]-nonane Fumaric Acid Salt] | 6200 | < 30 | – | 143 to 146 |
